Results taken from US7297353B2, “Use of anemonin for treating aseptic inflammations” (priority 2000, dated 2007).
Where “and” joins values, the source holds several entries; their conditions need not be identical. Equal entries are not always repeated. Where two headings read alike, the source gives them in different places.

Key:
[1] = test system: B-lymphocytes from the whole spleen of mice; experiment: LPS-induced responsive proliferation of B-lymphocytes ([3H] thymidine); format: cell-based; conditions: for Proliferation of B-lymphoctes LPS stimulation Average of CPM values / Proliferation of B-lymphocytes LPS stimulation Average of CPM values: LPS at 10 μg/ml, 48 hours; for inhibition of LPS-induced responsive proliferation of B-lymphocytes: final concentration range from 1 μg/ml to 100 μg/ml
Protocol: 5.2.1. Mice were sacrificed by removing spondyle, spleen was cut off in a sterile condition and then ground to obtain single cell suspension. After erythrocytes were got rid of the remained cells were diluted to […] with RPMI-1640 culture solution containing 10% fetal bovine serum.
5.2.2. 200 μl solution in total volume (including 100 μl the cell suspension, 50 μl sample and 50 μl ConA or LPS) was dispensed on 96-well plate.
50 μl culture solution containing 10% fetal bovine serum, instead of 50 μl sample, was added as negative control, in which the total volume was also 200 μl.
5.2.3. The cell was cultured at 37° C. and under 5% CO2 in incubator for 48 hours, and [^3H] thymidine (1.9×10^4 Bq) was added to the plate at 25 μl/well 12 hours before the end of culture.
5.2.4. The culture was continued. The plates were then stored at −20° C. in refrigeratory after the culture. The thawed cells were collected to fiberglass membrane (Nitrocellose membrane) with cell collector when detecting. After the addition of Scintillation solution, the quantity of [^3H] thymidine incorporated into DNA of cells was detected by Beta counter (MicroBeta Trilux, PerkinElmer LifeSciences). The proliferation of lymphocytes was indicated by cpm value.
Effect of the medicament on LPS-induced responsive proliferation of B-lymphocytes was examined, said B-lymphocytes were from the whole spleen of mice. LPS at 10 μg/ml final concentration was used as the stimulator to induce responsive proliferation of B-lymphocytes from the whole spleen of ICR homogenous mice (cultured in vitro for 48 hours).

[2] = test system: carrageenan-induced paw edema; experiment: Acute hind paw edema of rats induced by carrageenan; format: in vivo
Protocol: The animals were injected subcutaneously with carrageenan (10 μl of 1% solution in saline) into the right paw. Anti-inflammatory properties of external anemonin were studied by applying with various liniment solution of anemonin (0.125, 0.5, 2 mg/ml, 0.5 ml) for 2 h immediately after administration of carrageenan. The rats of control group were treated with the same volume of solvent (25% ethanol). The paw volumes of rats were measured at 0, 2 h, 3 h, 4 h, 5 h, 6 h after injection of carrageenan. The paw edema was represented by subtracting the volume of the untreated same paw from that of the treated paw.

spleen cells = experiment: Cytotoxicity effect of anemonin (MTT assay); format: cell-based, ICR mice; conditions: for OD value: 48 h
Protocol: The cell viability was determined by using 3-(4,5-dimethylthiazol-2-yl)-2,5-Diphenyl-tetrazolium bromide (MTT) assay. In brief, fresh spleen cells were obtained from ICR mice (male, 7-9 weeks old), 5×10^5 of spleen cells were cultured in 96-well flat plates. The medium was contained various concentrations of anemonin. After incubation for up to 48 h, MTT solution (5 mg/m in saline) was added to the 96 plates and cells were allowed to incubate for 6 h at 37° C. After the medium had been removed 100 μl, the cell and dye crystals were solubilized by adding 100 μl 10% sodium dodecyl sulfate (SDS), and then absorption was measured at 570 nm with a model 550-microplate reader (Bio-Rad).

IL-12(p40) = experiment: Cytokine production from splenocytes, Sac stimulation, IL-12(p40) (ELISA); format: cell-based, murine; conditions: 24 h
Protocol: (§1) For splenocyte cytokine production assay, 5×10^6 cells per well were inoculated into a 24-well tissue culture plate with ConA (5 mg/L) or Sac (1:10000) stimulation. Different concentrations of Anemonin were added in a final volume of 2 ml. Cells were incubated at 37° C., 5% CO2 for 24 h and supernatants were harvested, IFN-γ, IL-10, IL12 (p40) and IL-2 in supernatants were measured by the sandwich enzyme-linked immunosorbent assay (ELISA) as specified by the manufacturer (BD Bioscience pharmingen, US). Concentrations of the cytokine productions were calculated based on standard curves obtained from serial dilutions of murine cytokines (r IFN-γ, rIL-10, rIL12, rIL-2). As shown in Tables C-3 and C-4, high-dose Anemonin (1-100 μg/ml) inhibited all kinds of cytokine release induced by ConA or Sac.

IL-2 = experiment: Cytokine production from splenocytes, ConA stimulation, IL-2 (ELISA); format: cell-based, murine; conditions: 24 h
Protocol: as §1

[3] = In vitro percutaneous penetration velocity of anemonin; format: in vitro ADME; parameters: steady penetration velocity into derma: unit not given here; conditions: for Js: steady penetration velocity / Q24: cumulative amount of percutaneous penetration medicament per square centimeter for 24 hours / Tlag: time lag: n = 3
[4] = test system: staphylococcus, streptococcus, Bacillus diphtheriae, Mycobacterium tuberculosis, and E. coli; conditions: cited from earlier work

O=C1C=CC2(CCC23C=CC(=O)O3)O1 (centres unmarked) [Anemonin, anemonin]
Proliferation of B-lymphoctes LPS stimulation Average of CPM values ([1]; 0.001 μg/ml, Table B-6): 39272 CPM
Proliferation of B-lymphoctes LPS stimulation Average of CPM values ([1]; 0.01 μg/ml, Table B-6): 39551 CPM
Proliferation of B-lymphoctes LPS stimulation Average of CPM values ([1]; 0.1 μg/ml, Table B-6): 39615 CPM
Proliferation of B-lymphocytes LPS stimulation Average of CPM values ([1]; 1 μg/ml, Table B-5): 10137 CPM
Proliferation of B-lymphoctes LPS stimulation Average of CPM values ([1]; 1 μg/ml, Table B-6): 32154 CPM
Proliferation of B-lymphocytes LPS stimulation Average of CPM values ([1]; 10 μg/ml, Table B-5): 190 CPM
Proliferation of B-lymphoctes LPS stimulation Average of CPM values ([1]; 10 μg/ml, Table B-6): 40840 CPM
Proliferation of B-lymphocytes LPS stimulation Average of CPM values ([1]; 100 μg/ml, Table B-5): 164 CPM
Proliferation of B-lymphoctes LPS stimulation Average of CPM values ([1]; 100 μg/ml, Table B-6): 24523 CPM
inhibition at 0.001 µg/mL ([1]; Mus musculus, 0.001 μg/ml, LPS stimulation, Table B-6, read-out: General assess of activity Enhancement/Inhibition): -7%
inhibition at 0.01 µg/mL ([1]; Mus musculus, 0.01 μg/ml, LPS stimulation, Table B-6, read-out: General assess of activity Enhancement/Inhibition): -8%
inhibition at 0.1 µg/mL ([1]; Mus musculus, 0.1 μg/ml, LPS stimulation, Table B-6, read-out: General assess of activity Enhancement/Inhibition): -8%
inhibition at 1 µg/mL ([1]; Mus musculus, 1 μg/ml, LPS stimulation, Table B-5, read-out: General assess of activity Enhancement/Inhibition): 33%
inhibition at 1 µg/mL ([1]; Mus musculus, 1 μg/ml, LPS stimulation, Table B-6, read-out: General assess of activity Enhancement/Inhibition): 13%
inhibition at 10 µg/mL ([1]; Mus musculus, 10 μg/ml, LPS stimulation, Table B-5, read-out: General assess of activity Enhancement/Inhibition): 99%
inhibition at 10 µg/mL ([1]; Mus musculus, 10 μg/ml, LPS stimulation, Table B-6, read-out: General assess of activity Enhancement/Inhibition): -11%
inhibition at 100 µg/mL ([1]; Mus musculus, 100 μg/ml, LPS stimulation, Table B-5, read-out: General assess of activity Enhancement/Inhibition): 99%
inhibition at 100 µg/mL ([1]; Mus musculus, 100 μg/ml, LPS stimulation, Table B-6, read-out: General assess of activity Enhancement/Inhibition): 33%
inhibition of LPS-induced responsive proliferation of B-lymphocytes [1]: sharply inhibited
inhibition of LPS-induced responsive proliferation of B-lymphocytes ([1]; listed as anemonin): remarkably inhibited
Paw edema ([2]; 0.125 mg/ml liniment, 2 h): 0.24 ± 0.06 mL
Paw edema ([2]; 0.125 mg/ml liniment, 3 h): 0.20 ± 0.09 mL
Paw edema ([2]; 0.125 mg/ml liniment, 4 h): 0.33 ± 0.08 mL
Paw edema ([2]; 0.125 mg/ml liniment, 5 h): 0.36 ± 0.11 mL
Paw edema ([2]; 0.125 mg/ml liniment, 6 h): 0.39 ± 0.08 mL
Paw edema ([2]; 0.5 mg/ml liniment, 2 h): 0.24 ± 0.13 mL
Paw edema ([2]; 0.5 mg/ml liniment, 3 h): 0.21 ± 0.08 mL
Paw edema ([2]; 0.5 mg/ml liniment, 4 h): 0.25 ± 0.07 mL
Paw edema ([2]; 0.5 mg/ml liniment, 5 h): 0.35 ± 0.10 mL
Paw edema ([2]; 0.5 mg/ml liniment, 6 h): 0.40 ± 0.08 mL
Paw edema ([2]; 2 mg/ml liniment, 0.5 ml for 2 h, 2 h after carrageenan): 0.25 ± 0.08 mL
Paw edema ([2]; 2 mg/ml liniment, 3 h): 0.16 ± 0.08 mL
Paw edema ([2]; 2 mg/ml liniment, 4 h): 0.25 ± 0.07 mL
Paw edema ([2]; 2 mg/ml liniment, 5 h): 0.30 ± 0.06 mL
Paw edema ([2]; 2 mg/ml liniment, 6 h): 0.31 ± 0.10 mL
paw edema development ([2]; liniment 0.125, 0.5, 2 mg/ml, dose-dependent manner): significantly reduced
cytotoxicity (spleen cells; 0.001 ug/ml): No
OD value (spleen cells; 0.001 ug/ml, 570 nM): 0.196 ± 0.006
cytotoxicity (spleen cells; 0.01 ug/ml): No
OD value (spleen cells; 0.01 ug/ml): 0.193 ± 0.007
cytotoxicity (spleen cells; 0.1 ug/ml): No
OD value (spleen cells; 0.1 ug/ml): 0.200 ± 0.011
cytotoxicity (spleen cells; 1 ug/ml): Yes
OD value (spleen cells; 1 ug/ml): 0.160 ± 0.004
cytotoxicity (spleen cells; 10 ug/ml): Yes
OD value (spleen cells; 10 ug/ml): 0.135 ± 0.003
cytotoxicity (spleen cells; 100 ug/ml): Yes
OD value (spleen cells; 100 ug/ml): 0.118 ± 0.011
cytotoxic effects (spleen cells; 1-100 μg/ml): cytotoxic effects in a dose-dependent manner
IL-12(p40) (IL-12(p40); 0.001 μg/ml): 501 ± 6 pg/mL
IL-12(p40) (IL-12(p40); 0.01 μg/ml): 446 ± 0 pg/mL
IL-12(p40) (IL-12(p40); 0.1 μg/ml): 444 ± 3 pg/mL
IL-12(p40) (IL-12(p40); 1 μg/ml): 293 ± 0 pg/mL
IL-12(p40) (IL-12(p40); 10 μg/ml): 86 ± 6 pg/mL
IL-12(p40) (IL-12(p40); 100 μg/ml): 72 ± 4 pg/mL
IL-2 (IL-2; 0.001 μg/ml): 482 ± 7 pg/mL
IL-2 (IL-2; 0.01 μg/ml): 479 ± 5 pg/mL
IL-2 (IL-2; 0.1 μg/ml): 461 ± 2 pg/mL
IL-2 (IL-2; 1 μg/ml): 190 ± 2 pg/mL
IL-2 (IL-2; 10 μg/ml): 22 ± 1 pg/mL
IL-2 (IL-2; 100 μg/ml): 28 ± 1 pg/mL
ER: increased permeation times ([3]; 30% ethanol solution): 2.0
Js: steady penetration velocity ([3]; 30% ethanol solution): 4.65 ± 0.47 μg · cm^−2 · h^−1
Q24: cumulative amount of percutaneous penetration medicament per square centimeter for 24 hours ([3]; 30% ethanol solution): 104.45 ± 12.58 μg · cm^−2
Tlag: time lag ([3]; 30% ethanol solution): 1.09 ± 0.20 h
steady penetration velocity into derma ([3]; 30% of ethanol): 4.65
ER: increased permeation times ([3]; water-saturated solution): 1.0
Js: steady penetration velocity ([3]; water-saturated solution): 2.28 μg · cm^−2 · h^−1 and 2.28 ± 0.39 μg · cm^−2 · h^−1
Q24: cumulative amount of percutaneous penetration medicament per square centimeter for 24 hours ([3]; water-saturated solution): 50.49 ± 6.48 μg · cm^−2
Tlag: time lag ([3]; water-saturated solution): 2.05 ± 0.74 h
inhibitory against bacteria [4]: inhibitory
